Laboratory results published in PMC12583094, “A novel antioxidant peptide from black soybean [Glycine max (L.) Merr.] with verified MPO interaction and multi-scale antioxidant activity” (Frontiers in Nutrition, 2025).

How the values were obtained:
Format in all cases: cell-based, human
HaCaT cells [1] = test: CCK8 cell viability, concentration screening in HaCaT cells; settings: 1 h
Experimental: (§1) HaCaT cell recovery, culture, and subculture were performed with reference to the method described by Yusha Zi et al., with some modifications ([23]). For recovery, cryopreserved HaCaT cells were retrieved from liquid nitrogen storage and quickly thawed in a 37 °C water bath with gentle shaking. Just before complete thawing, the tube was removed from the water bath, and the cell suspension was immediately transferred into a 15 mL centrifuge tube containing 9 mL of pre-warmed complete medium. The complete medium consisted of DMEM supplemented with 10% fetal bovine serum (FBS) and 1% penicillin–streptomycin (P/S). Cells were centrifuged at 800 rpm for 5 min at 4 °C. After discarding the supernatant, the cell pellet was resuspended in 5 mL of fresh complete medium and transferred to a culture flask equipped with a ventilated cap. Cells were incubated in a humidified incubator at 37 °C with 5% CO₂ and 95% humidity.
For subculturing, when cell confluence reached approximately 80%, the medium was discarded, and the cells were gently rinsed three times with 2 mL of PBS. Then, 1 mL of 0.25% trypsin solution was added, and the flask was incubated at 37 °C for about 1 min. Once the cells became round and partially detached (as observed under a microscope), 3 mL of complete medium was added to terminate the digestion. The cell suspension was gently pipetted to disperse the cells and transferred to a 15 mL centrifuge tube. After centrifugation at 800 rpm for 5 min at 4 °C, the supernatant was discarded. The pellet was resuspended in fresh medium and seeded into new culture flasks at a ratio of 1:3, followed by incubation under the same culture conditions.
After digestion and resuspension, HaCaT cells were seeded into a 96-well plate at a concentration of 1 × 10^^4 cells/ml, with 100 μL of complete culture medium added to each well. Three wells with no cells were treated with an equal volume of complete culture medium as the blank group. The cells were incubated for 24 h to allow attachment. For the experiment, the control and blank groups were replaced with an equal volume of fresh medium, while the treatment groups were treated with a concentration gradient of 100, 200, 500, 1,000, and 1,500 μg/mL H2O2 and peptide samples. The H2O2 group was incubated for 1 h, while the peptide sample group was incubated for 24 h. After incubation, the original medium was discarded, and 100 μL of CCK8 working solution (prepared from 90% DMEM + 10% CCK8 reagent) was added to each well. The blank group, which contained no cells, was used as the reference. The plate was incubated for an appropriate period, and the absorbance at 450 nm was measured using a microplate reader. Cell viability was calculated using the following formula:
Cell viability(%)=100%×(ODsample−ODblank)/(ODcontrol−ODblank).

HaCaT cells [2] = settings: 500 μg/mL H2O2 1 h, no peptide; CCK8, 450 nm; p < 0.0001 vs control; mean ± SD, n = 3
Experimental: as §1, with “humidity. For subculturing, when cell confluence reached approximately 80%, the medium was discarded, and the cells were gently rinsed three times with 2 mL of PBS. […] The plate was incubated for an appropriate period, and the absorbance at 450 nm was measured using a microplate reader. Cell viability was calculated using the following formula: Cell viability(%)=100%×(ODsample−ODblank)/(ODcontrol−ODblank). […] The absorbance was measured and cell viability was calculated under the same conditions.” for “humidity.”

HaCaT cells [3] = test: ROS quantification in H2O2-treated HaCaT cells (DCFH-DA); settings: 500 μg/mL H2O2 1 h, no peptide; DCFH-DA fluorescence 488/525 nm normalized per mg protein; p < 0.0001 vs control (541.25 ± 25.03 AU); mean ± SD, n = 3
Experimental: After digestion and resuspension, HaCaT cells were seeded into a 6-well plate at a concentration of 1 × 10^4 cells/ml, with 2 mL of culture medium added to each well. The cells were incubated for 24 h to allow attachment and adaptation. After 24 h, the cells were divided into treatment groups. The control and blank groups were replaced with an equal volume of normal culture medium, while the treatment group was incubated with a 1,000 μg/mL peptide solution for 24 h. After that, both the control and treatment groups were treated with 500 μg/mL H2O2 and incubated for an additional 1 h.
After incubation, the medium was discarded, and DCFH-DA probe was diluted in serum-free medium at a 1:1000 ratio. Then, 1.5 mL of the diluted solution was added to each well, and the cells were incubated at 37 °C in the dark for 20 min. The blank group was treated with an equal volume of serum-free medium. […] The fluorescence intensity was measured using a fluorescence spectrophotometer with an excitation wavelength of 488 nm and an emission wavelength of 525 nm. The total protein concentration of each sample was determined using the BCA method. The fluorescence value was then normalized to the fluorescence intensity per milligram of protein, and the results were statistically analyzed.

OO [H₂O₂, hydrogen peroxide]
effect on HaCaT cell viability at 200 μg/mL H2O2 (HaCaT cells [1]; H2O2 200 μg/mL, CCK8, vs control, p < 0.01): A significant reduction
HaCaT cell viability after 500 μg/mL H2O2 (screening) (HaCaT cells [1]; H2O2 500 μg/mL, CCK8, 450 nm, mean ± SD, n = 3): 49.05 ± 4.24%
dead HaCaT cells at 1500 μg/mL H2O2 (HaCaT cells [1]; H2O2 1500 μg/mL, CCK8, 450 nm): over 90%
HaCaT cell viability, H2O2 alone (HaCaT cells [2]): 47.82 ± 1.87%
ROS level, H2O2 alone (HaCaT cells [3]): 2128.33 ± 127.37 AU
